Source: paper PMC5552351, “Bacteriological profiling of diphenylureas as a novel class of antibiotics against methicillin-resistant Staphylococcus aureus” (PLoS ONE, 2017)
≈ marks a conversion by molar mass, not a printed value.

Key:
[1] = system: clinically-relevant strains of MRSA and VRSA; experiment: broth microdilution MIC/MBC, panel summary; format: cell-based; details: Staphylococcus aureus, summary over the MRSA isolates of Table 1; read-out: concentration inhibiting growth of MRSA isolates (MIC)
Procedure: The broth microdilution assay was employed to determine the MIC of compounds 1, 2, and vancomycin against five MRSA strains, four VRSA strains, one highly mupirocin-resistant S. aureus strain, one biofilm-forming S. aureus (ATCC 6538) strain, and one biofilm-forming methicillin-resistant S. epidermidis strain, as per the guidelines of the Clinical and Laboratory Standards Institute (CLSI). […] The MBC was determined by plating an aliquot (5 μL) from wells with no growth onto TSA plates. Plates were incubated at 37 °C for 19 hours before recording the MBC (concentration where no growth was observed on TSA plates).

Bacillus subtilis = experiment: Bacterial Cytological Profiling (BCP); format: cell-based; details: two hours, LB-MSM osmotically buffered media, 37 °C
Procedure: B. subtilis cells were grown in Luria Bertani (LB) medium at 37 °C until the optical density at 600 nm (OD600) was ~0.20. Cells were then left untreated or treated with compound 1 or control antibiotics in the presence of methylsulfonylmethane (MSM), as described previously. After two hours, cells were stained with FM 4−64 (1 μg/mL) to visualize cell membranes; DAPI (1 μg/ml) to visualize DNA, and SYTOX Green (1 μg/mL), a vital stain which is normally excluded from cells with an intact membrane but brightly stains cells that are lysed. Images were collected using a Delta Vision Spectris Deconvolution microscope, as described previously.

MRSA USA400 (NRS123) [2] = experiment: multi-step resistance selection; format: cell-based, Staphylococcus aureus; details: for increase in MIC after fourteen passages: MRSA USA400 (NRS123), fourteen passages over two weeks
Procedure: To assess MRSA’s ability to develop resistance to the diphenylurea compounds after repeated exposure, a multi-step resistance selection experiment was conducted. […] Resistance was classified as a greater than four-fold increase in the initial MIC, as reported elsewhere.

MRSA USA400 (NRS123) [3] = experiment: MIC in presence and absence of human serum albumin; format: cell-based, Staphylococcus aureus; details: for increase in MIC in the presence of HSA: MRSA USA400, 4% human serum albumin vs none; for MIC: Staphylococcus aureus, TSB
Procedure: The broth microdilution assay presented above was used to assess if compounds 1 and 2 bind to a major component of blood (human serum albumin) thus limiting the free fraction of drug available to exert its antibacterial effect. […] CaCl2 ([…]) was added to wells containing daptomycin, per the CLSI guidelines.

[4] = system: S. aureus NRS107 (RN4220); experiment: accumulation of UDP-N-acetylmuramyl pentapeptide (HPLC-MS); format: cell-based, Staphylococcus aureus; details: 10 × MIC, 30 minutes
Procedure: The accumulation of UDP-N-acetylmuramyl pentapeptide was detected using a procedure described in a previous study, with the following modifications. S. aureus NRS107 (RN4220), in early logarithmic growth stage (OD600 ~ 0.60), was incubated with 130 μg/mL chloramphenicol for 15 minutes at 37°C. […] Untreated samples served as a negative control. Samples were centrifuged at 10,000 rpm for five minutes, the supernatant discarded, and the pellet re-suspended in sterile deionzined water (1 mL). The pellet was boiled at […] for 30 minutes before samples were chilled on ice for 10 minutes. UDP-N-acetylmuramyl-pentapeptide was measured using an Agilent High Performance Liquid Chromatography coupled to a time-of-flight Mass Spectrometer (HPLC-MS). A Waters XBridge Phenyl (2.1 × 100 mm, 3.5 μm) chromatography column was used, with mobile phases of water, 0.1% formic acid (Buffer A) and acetonitrile, 0.1% formic acid (Buffer B). A gradient of 5–20% Buffer B over 14 minutes was used, with a flow rate of 0.3 mL/min. An electrospray source was used, in positive ionization mode. Extracted Ion Chromatograms (EIC) were generated at a mass-to-charge ratio (m/z) of 1150.3588 (20 ppm window). Mass error for UDP-N-acetylmuramyl-pentapeptide was <1 ppm.

VRS10 = experiment: microbe, parasite or virus in culture; format: cell-based, Staphylococcus aureus; details: VRS10, compound at ½ × MIC
Procedure: (§1) CAMHB was inoculated with strain VRS4 or strain VRS10 (5×10^5 CFU/mL), as described previously, with the following modifications. Aliquots ([…]) of the bacterial suspension were divided into micro-centrifuge tubes and compounds 1 or 2 (at ½ × MIC) were introduced into each tube. After 30 minutes of incubation at room temperature, samples from each tube were transferred to a new micro-centrifuge tube, prior to addition of vancomycin (at 128 μg/mL). Plates containing the test agents and bacteria were then incubated at 37 °C for 20–22 hours after which the MIC value was determined. A fold-reduction was calculated by comparing the MIC of vancomycin compared to the MIC of vancomycin given in combination with compounds 1 or 2 (at ½ × MIC).

[5] = aqueous solubility assessment (turbidity); format: physicochemical; details: aqueous buffer, kinetic from dmso stock
Procedure: The solutions were diluted 100-fold into PBS in a 96-well plate and mixed. The absorbance of the PBS-containing plate was measured prior to addition of the test agents to determine the background absorbance. After two hours, the presence of precipitate was detected by turbidity (absorbance at 540 nm). […] The solubility limit is reported as the highest experimental concentration with no evidence of turbidity.

[6] = system: S. epidermidis NRS101 biofilm; experiment: biofilm mass disruption, crystal violet reporter assay; format: cell-based, Staphylococcus epidermidis; details: even at 128 μg/mL, 24-hour treatment
Procedure: Compounds 1, 2, and vancomycin were examined for their ability to eradicate mature staphylococcal biofilm using the microtiter dish biofilm formation assay. S. epidermidis NRS101 and S. aureus ATCC 6538 were selected as the test organisms given their ability to form strong adherent biofilm. An overnight culture of bacteria was diluted (1:100 in TSB + 1% glucose) and transferred to a 96-well plate. The plate was incubated for 24 hours at 37 °C in order to form adherent biofilm on the surface of the plate wells. The medium containing the bacterial suspension was removed and the biofilm was washed with sterile PBS to remove planktonic cells. Compounds 1, 2, or vancomycin (from 128 to 1 μg/mL), in triplicate, in TSB were incubated with the biofilm for 24 hours at 37 °C.
Compounds were subsequently removed. The biofilm was washed with PBS and then stained with 1% (w/v) crystal violet for 40 minutes. The stain was removed and wells were washed with sterile PBS. Wells were next decolorized using 95% ethanol. The optical density of each well at 595 nm was measured using a microplate reader.

MRSA USA300 (NRS384) = experiment: time-kill assay; format: cell-based, Staphylococcus aureus; details: 4 × MIC; for reduction of MRSA CFU/mL: within two hours
MRSA = system: MRSA; parameters: method as in PMID 28249208; details: C. elegans; ref [21]; cited from earlier work
VRS4 = experiment: microbe, parasite or virus in culture; format: cell-based, Staphylococcus aureus; details: VRS4, compound at ½ × MIC
Procedure: as §1

[7] = 4% human serum albumin, read-out: MIC vs. MRSA USA400 (+HSA)
[8] = without human serum albumin, read-out: MIC vs. MRSA USA400 (-HSA)

Compound | MIC [1] | cytological profile (cell morphology) (Bacillus subtilis) | increase in MIC after fourteen passages (MRSA USA400 (NRS123) [2]) | MIC (MRSA USA400 (NRS123) [2]; Staphylococcus aureus, read-out: initial MIC) | increase in MIC in the presence of HSA (MRSA USA400 (NRS123) [3]) | MIC (MRSA USA400 (NRS123) [3]; [7]) | MIC (MRSA USA400 (NRS123) [3]; [8]) | UDP-N-acetylmuramyl pentapeptide accumulation [4] | Fold re-sensitization of VRSA to vancomycin (VRS10) | solubility at 2 h [5] | decrease in S. epidermidis biofilm mass [6] | time to completely eradicate a high inoculum of MRSA (~10^6 CFU/mL) (MRSA USA300 (NRS384)) | reduction of MRSA CFU/mL (MRSA USA300 (NRS384)) | reducing the burden of MRSA in infected worms (MRSA) | Fold re-sensitization of VRSA to vancomycin (VRS4)
C/C(=N\NC(=N)N)c1ccc(NC(=O)Nc2ccc(OCCC(C)C)cc2)cc1 [compound 1] | ≥ 4 µg/mL | cell shape defects | No increase | 8 µg/mL (≈ 20.2 µM) | seven-fold | 32 µg/mL (≈ 80.7 µM) | 4 µg/mL (≈ 10.1 µM) | notable increase | 3-fold | 23.9 µg/mL (≈ 60.4 µM) | no decrease | within four hours | 3 log10 | – | –
C/C(=N\NC(=N)N)c1ccc(NC(=O)Nc2ccc(OC3CCCCCC3)cc2)cc1 [compound 2] | ≥ 4 µg/mL | – | No increase | – | 15 fold | 128 µg/mL (≈ 303 µM) | 8 µg/mL (≈ 18.9 µM) | – | – | 5.15 µg/mL (≈ 12.2 µM) | no decrease | within four hours | 3 log10 | superior to vancomycin | 7-fold
